From US10881641B2, “Methods and use of compounds that bind to RelA of NF-kB” (Cedars-Sinai Medical Center, priority 2015, dated 2021)
Entries after “also recorded” stand apart in the source; their conditions may differ.

Experiments:
MDA-MB-231 cells = assay: xenograft breast cancer model, tumor growth; format: in vivo, athymic mice; conditions: 25 mg/kg/day IP for 4 weeks, compared to vehicle, N=6, FIG. 3
Protocol: Mice were administrated 25 mg/kg/day of CRL1101 or vehicle IP, as indicated by arrows. Results are given as mean tumor volume +− s.e. […] N=6. Therapeutic efficacy of CRL1101 was tested in xenograft breast cancer model. Briefly, triple-negative breast cancer cells, MDA-MB-231 were used to grow tumor in athymic mice. Mice were treated with 25 mg/kg/day, IP for 4 weeks. The control group was treated with vehicle.

breast cancer cells = assay: anchorage independent growth assay (colony formation, clonogenic survival); format: cell-based; conditions: 15 uM CRL1101 added after 24 hours, 14 days, soft agarose, FIG. 1B
Protocol: The effects of CRL1101 on clonogenic survival were analyzed. Base layers consisting of growth medium containing 0.53% low-melting point agarose (Invitrogen) were poured onto 6-well plates and allowed to solidify. Cells were seeded at concentration of 10000/well in triplicate in top layers consisting of growth medium containing 0.32% agarose. After 24 hours, 15, uM of CRL1101 was added. Cells were incubated for 14 days to form visible colonies. The colonies were fixed and stained by 0.05% Crystal violet in 50% methanol.

[1] = tested on: triple-negative breast cancer cell lines; assay: cell proliferation by calorimetric assay (MTT); format: cell-based; conditions: FIG. 1A
RelA(p65) = biological target: T1, RelA(p65) (Homo sapiens, UniProt Q04206); assay: nuclear localization of RelA by immunofluorescent staining; format: cell-based; conditions: TNBC cell lines, 20 mM CRL1101 in 1% DMSO, 45 minutes, FIG. 2
T1 construct: endogenous in cells
T1 sequence (Q04206 whole entry): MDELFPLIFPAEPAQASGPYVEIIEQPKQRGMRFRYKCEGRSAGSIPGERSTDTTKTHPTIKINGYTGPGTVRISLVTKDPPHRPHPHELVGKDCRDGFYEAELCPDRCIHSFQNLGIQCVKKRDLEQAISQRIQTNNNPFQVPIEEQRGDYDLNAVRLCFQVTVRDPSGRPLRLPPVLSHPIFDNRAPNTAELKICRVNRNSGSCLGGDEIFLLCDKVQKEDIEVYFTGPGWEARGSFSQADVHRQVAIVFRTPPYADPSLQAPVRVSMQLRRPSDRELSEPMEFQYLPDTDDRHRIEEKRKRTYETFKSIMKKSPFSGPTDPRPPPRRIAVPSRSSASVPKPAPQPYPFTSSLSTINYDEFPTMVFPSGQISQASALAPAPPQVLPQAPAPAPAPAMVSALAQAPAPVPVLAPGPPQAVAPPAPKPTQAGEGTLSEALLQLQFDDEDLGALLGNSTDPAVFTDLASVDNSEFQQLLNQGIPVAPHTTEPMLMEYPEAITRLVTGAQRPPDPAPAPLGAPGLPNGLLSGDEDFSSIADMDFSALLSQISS
Protocol: Cells were grown in Dulbecco's modified Eagle medium supplemented with 10% heat-inactivated fetal calf serum and 1% (w/v) penicillin/streptomycin (all purchased from Mediatech Inc, Manassas, Va., USA). Cells were treated with or without 20 mM of CRL1101 in 1% DMSO. Forty five minutes after treatment, cells were fixed with 4% formaldehyde for 10 min and sequentially treated with 0.1% Triton X 100 for 10 min. Cells were blocked in 1% BSA in PBS for 10 min. cells were incubated with anti-Re/A(p65) antibody (1:150, Abeam, Cambridge, UK) in PBS with 1% BSA overnight at 4° C. and a secondary antibody (1:1000 anti-rabbit Alexa 488, Invitrogen, Carlsbad, Calif., USA) for 1 hr in the dark. Analyses were performed using a microscope (Nikon ECLIPSE Ti-U, Nikon, Tokyo, JAPAN).

IC50 ([1]; all the three TNBC cell lines, MTT, read-out: IC50, inhibition of TNBC cell line proliferation): 20 µM
nuclear localization of RelA (RelA(p65)): significantly inhibited
Structure (SMILES): Cl.O=[N+]([O-])c1cc(S(=O)(=O)CCCN2CCOCC2)ccc1F [CRL1101]
tumor growth (mean tumor volume) (MDA-MB-231 cells): significant reduction in tumor growth; also recorded: significant (p<0.001) compared to vehicle
colony formation (breast cancer cells): significantly inhibited
cell proliferation ([1]; breast cancer cells): significantly inhibited
